The results in this text go back to patent US10851098B2, “Azole amides and amines as alpha v integrin inhibitors” (BRISTOL-MYERS SQUIBB COMPANY, priority 2016, dated 2020).

The assay deals with T1, human αVβ6 (Homo sapiens, UniProt P06756+P18564).
T1 construct: purchased R & D systems 3817-AV
Briefly: human αVβ6 HTRF binding assay. On the procedure:
All binding assays used the HTRF (homogeneous time resolved fluorescence) technology from Cisbio International, therefore all assays are described as HTRF binding assays. The assay results for the Examples are listed above together with the characterization data. The HTRF binding assays are established for the following integrins: human αVβ6, human αVβ1, human αVβ3, human αVβ5, and human αVβ8. All assays used the following assay buffer: 20 mM Tris, pH 7.4, 1 mM MgCl2, 1 mM MnCl2, 0.01% Tween 20, and 0.01% BSA. Alternatively, a SPA-based assay was used for evaluation of receptor binding.
[…]
(In TR-FRET formats the signal depends on donor and acceptor labels being close together.)

T1 sequence (P06756 31-992 limits assumed): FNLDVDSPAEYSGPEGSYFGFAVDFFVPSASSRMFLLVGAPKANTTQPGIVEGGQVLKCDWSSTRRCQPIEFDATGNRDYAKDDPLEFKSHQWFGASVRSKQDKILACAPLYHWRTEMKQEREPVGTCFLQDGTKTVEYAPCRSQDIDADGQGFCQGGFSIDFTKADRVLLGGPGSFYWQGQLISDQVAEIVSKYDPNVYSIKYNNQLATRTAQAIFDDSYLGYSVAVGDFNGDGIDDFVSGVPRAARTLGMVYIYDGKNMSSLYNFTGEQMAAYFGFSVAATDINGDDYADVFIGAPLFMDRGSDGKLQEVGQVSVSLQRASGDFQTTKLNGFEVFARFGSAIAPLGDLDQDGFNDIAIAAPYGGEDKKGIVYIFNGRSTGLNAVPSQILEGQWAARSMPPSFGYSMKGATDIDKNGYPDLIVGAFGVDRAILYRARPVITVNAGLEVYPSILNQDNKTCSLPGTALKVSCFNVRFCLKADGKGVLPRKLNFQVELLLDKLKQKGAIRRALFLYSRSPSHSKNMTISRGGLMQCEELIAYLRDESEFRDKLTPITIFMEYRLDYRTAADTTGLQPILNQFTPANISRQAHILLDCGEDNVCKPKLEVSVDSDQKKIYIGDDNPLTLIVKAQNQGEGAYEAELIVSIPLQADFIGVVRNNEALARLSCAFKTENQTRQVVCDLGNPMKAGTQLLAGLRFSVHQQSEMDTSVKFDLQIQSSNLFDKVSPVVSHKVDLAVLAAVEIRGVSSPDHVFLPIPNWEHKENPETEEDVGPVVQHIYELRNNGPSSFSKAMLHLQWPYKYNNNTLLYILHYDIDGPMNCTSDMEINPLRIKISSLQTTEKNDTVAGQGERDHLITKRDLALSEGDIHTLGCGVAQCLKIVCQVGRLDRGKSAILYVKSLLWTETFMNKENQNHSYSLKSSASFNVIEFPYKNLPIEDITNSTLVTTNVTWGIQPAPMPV
T1 sequence (P18564 22-707 limits assumed): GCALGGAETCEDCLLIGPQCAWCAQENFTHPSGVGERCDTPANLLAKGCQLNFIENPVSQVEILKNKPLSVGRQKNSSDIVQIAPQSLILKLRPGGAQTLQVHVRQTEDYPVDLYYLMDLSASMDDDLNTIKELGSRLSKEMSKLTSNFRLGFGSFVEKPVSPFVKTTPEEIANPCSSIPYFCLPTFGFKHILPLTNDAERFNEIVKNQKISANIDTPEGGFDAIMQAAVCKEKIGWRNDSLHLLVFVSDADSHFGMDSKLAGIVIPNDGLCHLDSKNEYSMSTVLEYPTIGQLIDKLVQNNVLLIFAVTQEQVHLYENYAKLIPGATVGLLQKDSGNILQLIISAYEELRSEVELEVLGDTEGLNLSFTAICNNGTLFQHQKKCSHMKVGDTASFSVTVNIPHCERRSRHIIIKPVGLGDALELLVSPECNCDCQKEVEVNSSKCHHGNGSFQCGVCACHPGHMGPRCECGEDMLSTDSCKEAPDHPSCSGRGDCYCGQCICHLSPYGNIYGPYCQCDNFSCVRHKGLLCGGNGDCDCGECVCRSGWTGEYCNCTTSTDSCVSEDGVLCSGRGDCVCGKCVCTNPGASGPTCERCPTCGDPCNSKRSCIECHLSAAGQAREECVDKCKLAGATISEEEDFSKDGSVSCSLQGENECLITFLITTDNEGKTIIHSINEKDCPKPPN

Consider `Cc1nc2c(cc1CCn1ncc(C(=O)NC(CC(=O)O)c3cc(Cl)cc(Cl)c3)c1COC(C)(C)C)CCCN2` (stereo not shown) [Example 108], for which the IC50 stood at 5000 nM. `O=C(O)CC1(NC(=O)c2cnn(CCc3ccc4c(n3)NCCC4)c2)Cc2ccccc2C1` [Example 109] returned a 50% inhibitory concentration (IC50) of 6440 nM. Under `Cc1cc(C)c(S(=O)(=O)N[C@@H](CNC(=O)c2ccnn2CCc2ccc3c(n2)NCCC3)C(=O)O)c(C)c1` [Example 115] stands 34 nM.

The molecule `O=C(O)C[C@H](NC(=O)c1cn(CCc2ccc3c(n2)NCCC3)cn1)c1cc(Cl)cc(Cl)c1` [Example 116] gave a half-inhibitory concentration (IC50) of 102 nM. Under `CCOC(=O)[C@H](CNC(=O)c1cn(CCc2ccc3c(n2)NCCC3)cn1)NS(=O)(=O)c1c(C)cc(C)cc1C` [Example 117] stands 130 nM.

As for `Cc1cc(C)c(S(=O)(=O)N[C@@H](CNC(=O)c2cnn(Cc3cc4c(nc3C)NCCC4)n2)C(=O)O)c(C)c1` [Example 118], the IC50 turned out to be 223 nM. Turning to `O=C(O)C[C@H](NC(=O)c1ncn(CCc2ccc3c(n2)NCCC3)n1)c1cc(Cl)cc(Cl)c1` [Example 120], the half-inhibitory concentration (IC50) amounted to 98 nM. Consider `Cc1cc(C)c(S(=O)(=O)N[C@@H](CNC(=O)c2ccn(Cc3cc4c(nc3C)NCCC4)c2)C(=O)O)c(C)c1` [Example 122], for which the 50% inhibitory concentration (IC50) stood at 43 nM. For `CCCCS(=O)(=O)N[C@@H](CNC(=O)c1cnn(CCc2ccc3c(n2)NCCC3)c1)C(=O)O` [Example 124], the 50% inhibitory concentration (IC50) was 2.6 nM. Under `O=C(NC[C@H](NS(=O)(=O)Cc1ccccc1)C(=O)O)c1cnn(CCc2ccc3c(n2)NCCC3)c1` [Example 125] stands 14 nM; under `CCS(=O)(=O)N[C@@H](CNC(=O)c1cnn(CCc2ccc3c(n2)NCCC3)c1)C(=O)O` [Example 126], 10 nM; under `CCCOC(=O)N[C@@H](CNC(=O)c1cnn(CCc2ccc3c(n2)NCCC3)c1)C(=O)O` [Example 127], 1.5 nM. Under `O=C(NC[C@H](NS(=O)(=O)Cc1ccccc1C(F)(F)F)C(=O)O)c1cnn(CCc2ccc3c(n2)NCCC3)c1` [Example 128] stands 2.5 nM; under `O=C(NC[C@H](NS(=O)(=O)CCC(F)(F)F)C(=O)O)c1cnn(CCc2ccc3c(n2)NCCC3)c1` [Example 129], 3 nM; under `COC(=O)N[C@@H](CNC(=O)c1cnn(CCc2ccc3c(n2)NCCC3)c1)C(=O)O` [Example 130], 13 nM.

Regarding `CC(C)COC(=O)N[C@@H](CNC(=O)c1cnn(CCc2ccc3c(n2)NCCC3)c1)C(=O)O` [Example 131], the IC50 is 0.9 nM.

Molecule `CCOC(=O)N[C@@H](CNC(=O)c1cnn(CCc2ccc3c(n2)NCCC3)c1)C(=O)O` [Example 132] registered an IC50 of 2.3 nM. Under `C=CCOC(=O)N[C@@H](CNC(=O)c1cnn(CCc2ccc3c(n2)NCCC3)c1)C(=O)O` [Example 133] stands 2.6 nM. Under `CCCCCOC(=O)N[C@@H](CNC(=O)c1cnn(CCc2ccc3c(n2)NCCC3)c1)C(=O)O` [Example 134] stands 0.8 nM; under `C=CCCOC(=O)N[C@@H](CNC(=O)c1cnn(CCc2ccc3c(n2)NCCC3)c1)C(=O)O` [Example 135], 1.4 nM; under `C#CCOC(=O)N[C@@H](CNC(=O)c1cnn(CCc2ccc3c(n2)NCCC3)c1)C(=O)O` [Example 136], 2 nM. The molecule `CC(C)(C)COC(=O)N[C@@H](CNC(=O)c1cnn(CCc2ccc3c(n2)NCCC3)c1)C(=O)O` [Example 137] yielded an IC50 of 0.8 nM.

As to `CCCS(=O)(=O)N[C@@H](CNC(=O)c1cnn(CCc2ccc3c(n2)NCCC3)c1)C(=O)O` [Example 138], the IC50 stood at 4.1 nM. Under `O=C(NC[C@H](NS(=O)(=O)CCc1cccc2ccccc12)C(=O)O)c1cnn(CCc2ccc3c(n2)NCCC3)c1` [Example 139] stands 0.9 nM. Consider `O=C(NC[C@H](NS(=O)(=O)Cc1cc(Cl)cc(Cl)c1)C(=O)O)c1cnn(CCc2ccc3c(n2)NCCC3)c1` [Example 140], for which the IC50 was determined as 6.2 nM.

With `O=C(NC[C@H](NS(=O)(=O)Cc1ccc(Cl)c(Cl)c1)C(=O)O)c1cnn(CCc2ccc3c(n2)NCCC3)c1` [Example 141], the IC50 worked out at 3.6 nM. The molecule `O=C(NC[C@H](NS(=O)(=O)Cc1cccc(F)c1)C(=O)O)c1cnn(CCc2ccc3c(n2)NCCC3)c1` [Example 142] registered a half-inhibitory concentration (IC50) of 8.2 nM. Under `Cc1cccc(CS(=O)(=O)N[C@@H](CNC(=O)c2cnn(CCc3ccc4c(n3)NCCC4)c2)C(=O)O)c1` [Example 143] stands 11 nM; under `CCCCCS(=O)(=O)N[C@@H](CNC(=O)c1cnn(CCc2ccc3c(n2)NCCC3)c1)C(=O)O` [Example 144], 2.1 nM; under `CC(C)CS(=O)(=O)N[C@@H](CNC(=O)c1cnn(CCc2ccc3c(n2)NCCC3)c1)C(=O)O` [Example 145], 3.9 nM. On to `O=C(NC[C@H](NS(=O)(=O)Cc1ccc(OC(F)(F)F)cc1)C(=O)O)c1cnn(CCc2ccc3c(n2)NCCC3)c1` [Example 146], for which the IC50 stood at 8.6 nM. Under `COCCS(=O)(=O)N[C@@H](CNC(=O)c1cnn(CCc2ccc3c(n2)NCCC3)c1)C(=O)O` [Example 147] stands 14 nM; under `CCOCCS(=O)(=O)N[C@@H](CNC(=O)c1cnn(CCc2ccc3c(n2)NCCC3)c1)C(=O)O` [Example 148], 8.9 nM.

Take `COCCOC(=O)N[C@@H](CNC(=O)c1cnn(CCc2ccc3c(n2)NCCC3)c1)C(=O)O` [Example 149]: the half-inhibitory concentration (IC50) amounted to 4.7 nM. Under `O=C(NC[C@H](NS(=O)(=O)Cc1ccc(C(F)(F)F)cc1)C(=O)O)c1cnn(CCc2ccc3c(n2)NCCC3)c1` [Example 150] stands 5.7 nM; under `O=C(NC[C@H](NS(=O)(=O)CCN1C(=O)c2ccccc2C1=O)C(=O)O)c1cnn(CCc2ccc3c(n2)NCCC3)c1` [Example 151], 1.2 nM. Consider `CCCCC(CC)COC(=O)N[C@@H](CNC(=O)c1cnn(CCc2ccc3c(n2)NCCC3)c1)C(=O)O` (stereo partly shown) [Example 152], for which the IC50 worked out at 0.4 nM.

In turn, `O=C(N[C@@H](CNC(=O)c1cnn(CCc2ccc3c(n2)NCCC3)c1)C(=O)O)OCC(F)(F)F` [Example 153] displayed an IC50 of 1.6 nM. Under `O=C(NC[C@H](NS(=O)(=O)Cc1cccc(C(F)(F)F)c1)C(=O)O)c1cnn(CCc2ccc3c(n2)NCCC3)c1` [Example 154] stands 16 nM.

`O=C(NC[C@H](NS(=O)(=O)Cc1ccccc1Cl)C(=O)O)c1cnn(CCc2ccc3c(n2)NCCC3)c1` [Example 155] returned a 50% inhibitory concentration (IC50) of 5.5 nM. Under `O=C(NC[C@H](NS(=O)(=O)Cc1cccc(Br)c1)C(=O)O)c1cnn(CCc2ccc3c(n2)NCCC3)c1` [Example 156] stands 21 nM; under `O=C(NC[C@H](NS(=O)(=O)Cc1cc(C(F)(F)F)cc(C(F)(F)F)c1)C(=O)O)c1cnn(CCc2ccc3c(n2)NCCC3)c1` [Example 157], 16 nM.

Molecule `Cc1cc(CS(=O)(=O)N[C@@H](CNC(=O)c2cnn(CCc3ccc4c(n3)NCCC4)c2)C(=O)O)no1` [Example 158] came in with a half-inhibitory concentration (IC50) of 29 nM. `O=C(NC[C@H](NS(=O)(=O)CC1CC1)C(=O)O)c1cnn(CCc2ccc3c(n2)NCCC3)c1` [Example 159] registered an IC50 of 2.7 nM. Under `CCCCCCOC(=O)N[C@@H](CNC(=O)c1cnn(CCc2ccc3c(n2)NCCC3)c1)C(=O)O` [Example 160] stands 0.7 nM; under `Cc1ccc(CS(=O)(=O)N[C@@H](CNC(=O)c2cnn(CCc3ccc4c(n3)NCCC4)c2)C(=O)O)cc1` [Example 161], 15 nM; under `CC#CCOC(=O)N[C@@H](CNC(=O)c1cnn(CCc2ccc3c(n2)NCCC3)c1)C(=O)O` [Example 162], 2.2 nM. The molecule `O=C(NC[C@H](NS(=O)(=O)Cc1cccc(Cl)c1)C(=O)O)c1cnn(CCc2ccc3c(n2)NCCC3)c1` [Example 163] returned an IC50 of 6.2 nM. Under `O=C(NC[C@H](NS(=O)(=O)CC1CCCCC1)C(=O)O)c1cnn(CCc2ccc3c(n2)NCCC3)c1` [Example 164] stands 6.4 nM; under `O=C(NC[C@H](NS(=O)(=O)Cc1ccc(Cl)cc1Cl)C(=O)O)c1cnn(CCc2ccc3c(n2)NCCC3)c1` [Example 165], 2.9 nM.

For `O=C(NC[C@H](NS(=O)(=O)Cc1ccccc1F)C(=O)O)c1cnn(CCc2ccc3c(n2)NCCC3)c1` [Example 166], the concentration for half-maximal inhibition (IC50) was found to be 10 nM. Under `O=C(NC[C@H](NS(=O)(=O)Cc1ccncc1)C(=O)O)c1cnn(CCc2ccc3c(n2)NCCC3)c1` [Example 167] stands 9.5 nM; under `O=C(NC[C@H](NS(=O)(=O)Cc1ccc(F)cc1)C(=O)O)c1cnn(CCc2ccc3c(n2)NCCC3)c1` [Example 168], 17 nM. The molecule `N#Cc1cccc(CS(=O)(=O)N[C@@H](CNC(=O)c2cnn(CCc3ccc4c(n3)NCCC4)c2)C(=O)O)c1` [Example 169] gave a concentration for half-maximal inhibition (IC50) of 13 nM.

As to `O=C(N[C@@H](CNC(=O)c1cnn(CCc2ccc3c(n2)NCCC3)c1)C(=O)O)OCCF` [Example 170], the IC50 turned out to be 5.5 nM. In turn, `Cc1cc(C)c(S(=O)(=O)N[C@@H](CNC(=O)c2cnn(CCCNC3=NCCN3)c2)C(=O)O)c(C)c1` [Example 171] showed a concentration for half-maximal inhibition (IC50) of 14 nM. Under `Cc1cc(C)c(S(=O)(=O)N[C@@H](CNC(=O)c2cnn(CCCNC3=NCC(O)CN3)c2)C(=O)O)c(C)c1` (stereo partly shown) [Example 172] stands 4.5 nM. Under `Cc1cc(C)c(S(=O)(=O)N[C@@H](CNC(=O)c2cnn(CCCNC3=NCC(F)CN3)c2)C(=O)O)c(C)c1` (stereo partly shown) [Example 173] stands 2.1 nM.

What is called IC50 is the concentration that inhibits the measured activity by half. Read a low IC50 as greater potency in that assay.
